Values quoted from earlier work, collected in patent publication US20110071136A1, “NOVEL TRICYCLIC PROTEIN KINASE MODULATORS” (CYLENE PHARMACEUTICALS, INC, priority 2009, published 2011).

Assays:
[1] = test system: leukemic cells from AML patients; conditions: Fedorov et al., PNAS 104(51), 20523-28
MOLM-13 (AML) = MOLM-13 (AML) xenograft model; 2008 AACR Annual Meeting, Abstract No. 4974
MV-4-11 (AML) = MV-4-11 (AML) xenograft model; 2008 AACR Annual Meeting, Abstract No. 4974

## CN(C)C[C@@H]1CCn2cc(c3ccccc32)C2=C(C(=O)NC2=O)c2cn(c3ccccc23)CCO1 [Ly5333'531]
[1]
  cell growth and cell death: suppressed cell growth and induced cell death

## CN1CCC(CNc2ccc3ncc(-c4cccc(OC(F)(F)F)c4)n3n2)CC1 [SGI-1776]
MOLM-13 (AML)
  tumor regression: significant tumor regression
MV-4-11 (AML)
  tumor regression: significant tumor regression
